Consider 2 compounds from article PMC10518255, “A first-in-class pan-lysyl oxidase inhibitor impairs stromal remodeling and enhances gemcitabine response and survival in pancreatic cancer” (Nature Cancer, 2023).

One data set concerns CD31. The experiment in a line: Immunohistochemistry of end-point KPC tumors: tumor vasculature. The class given is in vivo, mouse. Conditions: for Quantification of tumour vasculature (CD31 positive staining): Extended Data 6E, KPC tumours at endpoint, individual FOV. On the procedure: All tissues or matrices, including patient TMAs, were fixed in 10% buffered formalin and embedded in paraffin. The 4-μm sections of samples were deparaffinized with xylene and rehydrated in graded ethanol washes. For immunohistochemistry, Bond Dewax Solution (AR9222) was used. Antigen retrieval was performed using Bond RX H2(30) protocol: HIER 30 min ER1 (citrate pH 6) OR ER2 (EDTA pH 9) at 100 °C. Slides were quenched in BOND Polymer Refine Detection (Leica Biosystems DS9800). […] Slides were digitized on an Aperio slide scanner and representative areas per tumor acquired and analyzed by researchers blinded to the conditions of the experiment.
Extended Data Fig. 6 PXS-5505 in combination with gemcitabine in a KPC model. a. Quantification of proliferating cells (Ki67 positive nuclear staining) in KPC tumors at end point, treated as indicated. 5 fields of view (500 μm × 500 μm) per mouse and 10 mice per cohort were scored. […] Quantification of percent coverage of αSMA positive staining in KPC tumors at end point, treated as indicated. 3 fields of view (1000 μm × 1000 μm) per mouse and 10 mice per cohort were scored. […] Quantification of percent coverage of PDGFR-ß positive staining in KPC tumors at end point, treated as indicated. 3 fields of view (1000 μm × 1000 μm) per mouse and 10 mice per cohort were scored. […] Quantification of pMLC2 positive staining in stromal regions of KPC tumors at end point, treated as indicated. 3 fields of view (500 μm × 500 μm) per mouse and 10 mice per cohort were scored. […] Quantification of tumor vasculature (CD31 positive staining) in KPC tumors at end point, treated as indicated. 3 fields of view (1000 μm × 1000 μm) per mouse and 10 mice per cohort were scored. […] Quantification of STAT3 activation (pSTAT3 positive nuclear staining) in KPC tumors at end point, treated as indicated. 3 fields of view (1000 μm × 1000 μm) per mouse and 5 mice per cohort were scored. […] Scale bars = 100 μm. g Quantification of macrophage infiltration (F4/80 positive staining) in KPC tumors at end point, treated as indicated. […]

The next data set can be described thus: Plasma protein binding. Format: in vitro ADME. The conditions noted are these: In vitro (human), read-out: Plasma protein binding, % bound (converted).
In data set [1] the test system is Lysyl oxidase family activity in aorta. Description: Target engagement: lysyl oxidase family activity in freshly excised aorta, fluorometric activity assay (Fig. 2h). The class given is in vivo, rat. Set-up: Lysyl oxidase family activity in freshly excised aorta: unit not given here. Conditions: for Lysyl oxidase family activity in freshly excised aorta: single 30 mg/kg oral, individual samples, 30 mg/kg. As to the method:
Data are presented as mean ± s.d. Two-tailed P value determined by unpaired, nonparametric t-test with a Mann–Whitney U-test correction (comparison to PBS control). h, Lysyl oxidase family activity measured in freshly excised aorta determined by fluorometric activity assay n = 19 (PBS), 5 (4–120 h) biological independent samples. Data presented as mean ± s.d. Two-tailed P value determined by unpaired, nonparametric t-test with a Mann–Whitney U-test correction (comparison to PBS control).
To confirm that PXS-5505 inhibits lysyl oxidase family enzymatic activity in tissues, target engagement experiments were performed following a single oral dose (30 mg kg^−1) in rats. […] Lysyl oxidase family activity was measured in two tissues; aorta (core tissue) and ear (peripheral tissue).

Values joined by “and” are separate entries in the source; they are usually repeats but may differ in a detail not shown here. Equal entries are not always repeated.

On to `Nc1ccn([C@@H]2O[C@H](CO)[C@@H](O)C2(F)F)c(=O)n1` [Gem, gemcitabine], for which, in the data set on CD31, the “Quantification of tumour vasculature (CD31 positive staining)” value was 0.7299 and 0.7671 and 1.094 and 0.1238 and 0.9491 and 1.4885 and 2.0289 and 0.3988 and 1.306 and 1.1528 and 0.8514 and 0.5685 and 1.3159 and 1.5073 and 0.7452 and 2.699 and 3.9605 and 1.2028 and 1.6599 and 0.7292 and 1.2066 and 0.7182 and 1.9396 and 0.8792 and 0.4356 and 0.528 and 0.6666 and 0.9682 and 1.0035 and 1.0817. Also, the CD31 positivity entry in the data set with CD31 (KPC tumors at end point) is “moderately reduce CD31 positivity”.
For the compound `Cl.Cl.NC/C=C(\F)CS(=O)(=O)c1cccc2cccnc12.O` [PXS-5505, (Z)-3-fluoro-4-(quinolin-8-ylsulfonyl)but-2-en-1-amine dihydrochloride monohydrate], the fraction unbound in the data set “Plasma protein binding” was 0.78. Moreover, the “Quantification of tumour vasculature (CD31 positive staining)” value in the data set on CD31 is 1.4669 and 1.052 and 0.7167 and 1.5204 and 1.7208 and 1.2357 and 2.5692 and 2.5978 and 2.6637 and 1.5089 and 2.7227 and 2.2335 and 3.0895 and 2.1825 and 1.7906 and 0.381 and 0.3483 and 0.8882 and 1.0908 and 1.998 and 0.3729 and 1.0662 and 0.7486 and 0.544 and 1.3597 and 1.732 and 1.5892 and 0.9619 and 1.2706 and 1.8307. Besides, the “recovery of lysyl oxidase family activity in the aorta, of initial activity” value in data set [1] (rats, single 30 mg kg−1 oral, 24 h after dosing) is “approximately 50%”. The “Lysyl oxidase family activity in freshly excised aorta” value in data set [1] (rats, 4 h) is 15.4162 and 30.1157 and 25.1081 and 16.4125 and 13.2925; in data set [1] (rats, 24 h) it was 54.6033 and 26.1568 and 51.6931 and 36.2595 and 23.1592; in data set [1] (rats, 48 h), 62.6086 and 39.9999 and 48.7392 and 69.3553 and 56.8756; in data set [1] (rats, 120 h), 94.5071 and 44.5094 and 104.61 and 70.2729 and 55.285. Further, in data set [1] (single daily oral dose of 30 mg kg−1, over a 24-h period), the “calculated block of all lysyl oxidase family activity” value is on record as above 70%.
